Measured values from US20230091047A1 (priority 2019, published 2023).
Where two headings read alike, the source gives them in different places.

Key:
[1] = tested on: HBV (HepG2.117 cell line, inducibly HBV producing); assay: Anti-HBV activity: intracellular HBV DNA by real-time PCR in HepG2.117 cells after 3 days of treatment; format: cell-based, hepatitis B virus
How it was run: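 HepG2.117 cells replicate HBV under Tet-off control, without doxycycline. After induction of replication, cells were treated with serially diluted compound for 3 days, and intracellular HBV DNA was then quantified by real-time PCR with an HBV-specific primer set and probe.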

in vitro = format: cell-based; details: human, HepG2 or HepG2.117 cells, ATPlite, mean value
How it was run: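 Luminescent ATP quantitation served as the viability endpoint following a 3- or 4-day incubation with test compounds.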

[2] = Hepatitis B virus, HepG2.117, 72 h, HepG2.117 cells, intracellular HBV DNA by real-time PCR, 3 days of treatment, mean value; read-out: EC50 (μM, mean value)
[3] = 3-days incubation (not marked with *)
[4] = Hepatitis B virus, HepG2.117, 72 h, HepG2.117 cells, 3 days of treatment, intracellular HBV DNA by real-time PCR; mean value; read-out: EC50 (μM, mean value)
[5] = 3-days incubation (unmarked values)

SMILES | EC50 [1, 2] | CC50 at 3 days (in vitro; [3]) | EC50 [1, 4] | CC50 at 3 days (in vitro; [5]) | CC50 at 4 days (in vitro; 4-days incubation (values marked with *))
CNC(=O)c1ccc(-n2c(NC(C)C)nc3c(c2=O)C[C@@H](C)N(C(=O)c2cc(C)c(C#N)c(C)c2)C3)cc1 [Compound C506] | 0.94 µM | > 50 µM |  |  | 
CNC(=O)c1ccc(-n2c(N3CC[C@@H]3c3ccccc3)nc3c(c2=O)C[C@@H](C)N(C(=O)c2ccc(Cl)c(Cl)c2)C3)cc1 (single isomer, unassigned) [Compound C348, 4-[(6R)-7-(3,4-dichlorobenzoyl)-6-methyl-4-oxo-2-[(2*R)-2-phenylazetidin-1-yl]-5,6,7,8-tetrahydropyrido[3,4-d]pyrimidin-3(4H)-yl]-N-methylbenzamide] |  |  | 0.2 µM | 31.2 µM | 
CC(C)NC(=O)c1cnc(-n2c(NC(C)C)nc3c(c2=O)C[C@@H](C)N(C(=O)c2ccc(Cl)c(Cl)c2)C3)nc1 [Compound C382] | 0.05 µM | > 50 µM |  |  | 
CNC(=O)c1cnc(-n2c(NC)nc3c(c2=O)C[C@@H](C)N(C(=O)c2ccc(Cl)c(Cl)c2)C3)cn1 [Compound C287, 5-[(6R)-7-(3,4-dichlorobenzoyl)-6-methyl-2-(methylamino)-4-oxo-5,6,7,8-tetrahydropyrido[3,4-d]pyrimidin-3(4H)-yl]-N-methylpyrazine-2-carboxamide] |  |  | 0.75 µM | > 50 µM | 
CNc1nc2c(c(=O)n1-c1ccccc1OC)CCN(C(=O)c1ccc(Cl)c(Cl)c1)C2 [Compound C11, 7-(3,4-dichlorobenzoyl)-3-(2-methoxyphenyl)-2-(methylamino)-5,6,7,8-tetrahydropyrido[3,4-d]pyrimidin-4(3H)-one] |  |  | 6.41 µM |  | > 50 µM
CNC(=O)c1ccc(-n2c(NC(C)C)nc3c(c2=O)C[C@@H](C)N(C(=O)c2ccc(Cl)c(Cl)c2)C3)cc1Cl [Compound C338, 2-chloro-4-[(6R)-7-(3,4-dichlorobenzoyl)-6-methyl-4-oxo-2-[(propan-2-yl)amino]-5,6,7,8-tetrahydropyrido[3,4-d]pyrimidin-3(4H)-yl]-N-methylbenzamide] |  |  | 0.1 µM | > 50 µM | 
CC(C)Nc1nc2c(c(=O)n1-c1ccc(S(C)(=O)=O)cc1)CCN(C(=O)c1ccc3sccc3c1)C2 [Compound C164, 7-(1-benzothiophene-5-carbonyl)-3-[4-(methanesulfonyl)phenyl]-2-[(propan-2-yl)amino]-5,6,7,8-tetrahydropyrido[3,4-d]pyrimidin-4(3H)-one] |  |  | 0.24 µM | > 50 µM | 
CNC(=O)c1cc(-n2c(NC(C)c3ccc(OC(F)(F)F)cc3)nc3c(c2=O)C[C@@H](C)N(C(=O)c2ccc(Cl)c(Cl)c2)C3)[nH]n1 (some centres unmarked) [Compound C531] | 0.21 µM | 26.3 µM |  |  | 
CNC(=O)c1ccc(-n2c(NCC34C5C6C7C5C3C7C64)nc3c(c2=O)C[C@@H](C)N(C(=O)c2ccc(Cl)c(Cl)c2)C3)cc1 (some centres unmarked) [Compound C451] | 0.41 µM | > 50 µM |  |  | 
CNC(=O)c1ccc(-n2c(N[C@@H](C)c3ccc(OC(F)(F)F)cc3)nc3c(c2=O)C[C@@H](C)N(C(=O)c2ccc(Cl)c(Cl)c2)C3)cn1 [Compound C537] | 0.08 µM | > 50 µM |  |  | 
CNC(=O)c1ccc(-n2c(N[C@@H](C)c3cccc(OC)c3)nc3c(c2=O)C[C@@H](C)N(C(=O)c2ccc(Cl)c(Cl)c2)C3)cc1 (single isomer, unassigned) [Compound C394b] | 0.15 µM | 29 µM |  |  | 
CC(C)Nc1nc2c(c(=O)n1-c1ccc(S(C)(=O)=O)cc1)CCN(C(=O)c1ccn3nccc3c1)C2 [Compound C138, 3-[4-(methanesulfonyl)phenyl]-2-[(propan-2-yl)amino]-7-(pyrazolo[1,5-a]pyridine-5-carbonyl)-5,6,7,8-tetrahydropyrido[3,4-d]pyrimidin-4(3H)-one] |  |  | 5.98 µM | > 50 µM | 
COc1ccc(CNc2nc3c(c(=O)n2-c2ccccc2OC)CCN(C(=O)c2ccc(Cl)c(Cl)c2)C3)cc1 [Compound C1, 7-(3,4-dichlorobenzoyl)-3-(2-methoxyphenyl)-2-{[(4-methoxyphenyl)methyl]amino}-5,6,7,8-tetrahydropyrido[3,4-d]pyrimidin-4(3H)-one] |  |  | 1.47 µM | > 50 µM | 
Cc1nc(-c2ccc(-n3c(NC(C)C)nc4c(c3=O)C[C@@H](C)N(C(=O)c3ccc(Cl)c(Cl)c3)C4)cc2)c[nH]1 [Compound C244, (6R)-7-(3,4-dichlorobenzoyl)-6-methyl-3-[4-(2-methyl-1H-imidazol-4-yl)phenyl]-2-[(propan-2-yl)amino]-5,6,7,8-tetrahydropyrido[3,4-d]pyrimidin-4(3H)-one] |  |  | 0.12 µM | 22.9 µM | 
COc1ccc(CNc2nc3c(c(=O)n2-c2ccccc2OC)C[C@@H](C)N(C(=O)c2ccc(Cl)c(Cl)c2)C3)cc1 (single isomer, unassigned) [Compound C36Aa] |  |  | 0.31 µM | > 50 µM | 
CNC(=O)c1ccc(-n2c(NC(C)C)nc3c(c2=O)C[C@@H](C)N(C(=O)c2cc4c(Cl)c(Cl)ccc4[nH]2)C3)cc1 [Compound C566] | 0.03 µM | 6.8 µM |  |  | 
COCCn1c(NCc2ccc(OC)cc2)nc2c(c1=O)CCN(C(=O)c1ccc(Cl)c(Cl)c1)C2 [Compound C51, 7-(3,4-dichlorobenzoyl)-3-(2-methoxyethyl)-2-{[(4-methoxyphenyl)methyl]amino}-5,6,7,8-tetrahydropyrido[3,4-d]pyrimidin-4(3H)-one] |  |  | 4.35 µM | 36.6 µM | 
CC(C)Nc1nc2c(c(=O)n1-c1ccc(-c3nccn3C)cc1)C[C@@H](C)N(C(=O)c1ccc(Cl)c(Cl)c1)C2 [Compound C192, (6R)-7-(3,4-dichlorobenzoyl)-6-methyl-3-[4-(1-methyl-1H-imidazol-2-yl)phenyl]-2-[(propan-2-yl)amino]-5,6,7,8-tetrahydropyrido[3,4-d]pyrimidin-4(3H)-one] |  |  | 0.13 µM | 36.1 µM | 
CC(C)Nc1nc2c(c(=O)n1-c1ccc(S(C)(=O)=O)cc1)CC(c1ccc(F)cc1)N(C(=O)c1ccc(Cl)c(Cl)c1)C2 (centres unmarked) [Compound C110, 7-(3,4-dichlorobenzoyl)-6-(4-fluorophenyl)-3-[4-(methanesulfonyl)phenyl]-2-[(propan-2-yl)amino]-5,6,7,8-tetrahydropyrido[3,4-d]pyrimidin-4(3H)-one] |  |  | > 50 µM | > 50 µM | 
CNC(=O)c1ccc(-n2c(N[C@H](C)c3ccc(OC)c(F)c3)nc3c(c2=O)C[C@@H](C)N(C(=O)c2ccc(Cl)c(Cl)c2)C3)cc1 (single isomer, unassigned) [Compound C416a] | 0.96 µM | > 50 µM |  |  | 
CC(C)Nc1nc2c(c(=O)n1-c1ccc(S(C)(=O)=O)cc1)CCN(C(=O)c1ccc(Cl)c(C(C)C)c1)C2 [Compound C222, 7-[4-chloro-3-(propan-2-yl)benzoyl]-3-[4-(methanesulfonyl)phenyl]-2-[(propan-2-yl)amino]-5,6,7,8-tetrahydropyrido[3,4-d]pyrimidin-4(3H)-one] |  |  | 1.45 µM | > 50 µM | 
CCOC(=O)c1ccc(-n2c(NC(C)C)nc3c(c2=O)C[C@@H](C)N(C(=O)c2ccc(Cl)c(Cl)c2)C3)cc1 [Compound C153, ethyl 4-[(6R)-7-(3,4-dichlorobenzoyl)-6-methyl-4-oxo-2-[(propan-2-yl)amino]-5,6,7,8-tetrahydropyrido[3,4-d]pyrimidin-3(4H)-yl]benzoate] |  |  | 0.75 µM | > 50 µM | 
CNC(=O)c1ccc(-n2c(N3CC[C@@H]3C)nc3c(c2=O)C[C@@H](C)N(C(=O)c2ccc(Cl)c(Cl)c2)C3)cc1 (single isomer, unassigned) [Compound C312, 4-[(6R)-7-(3,4-dichlorobenzoyl)-6-methyl-2-[(2*S)-2-methylazetidin-1-yl]-4-oxo-5,6,7,8-tetrahydropyrido[3,4-d]pyrimidin-3(4H)-yl]-N-methylbenzamide] |  |  | 0.26 µM | > 50 µM | 
COc1ccc(CNc2nc3c(c(=O)n2-c2ccc(C(N)=O)cc2)CCN(C(=O)c2ccc(Cl)c(Cl)c2)C3)cc1 [Compound C149, 4-[7-(3,4-dichlorobenzoyl)-2-{[(4-methoxyphenyl)methyl]amino}-4-oxo-5,6,7,8-tetrahydropyrido[3,4-d]pyrimidin-3(4H)-yl]benzamide] |  |  | 1.5 µM | 23.2 µM | 
CC(C)Nc1nc2c(c(=O)n1-c1ccc(S(C)(=O)=O)cc1)CCN(C(=O)c1ccc3scnc3c1)C2 [Compound C366] |  |  | > 10 µM | > 50 µM | 
CNC(=O)c1ccc(-n2c(NC34CC(C3)C4)nc3c(c2=O)C[C@@H](C)N(C(=O)c2ccc(Cl)c(Cl)c2)C3)cc1 [Compound C251, 4-[(6R)-2-[(bicyclo[1.1.1]pentan-1-yl)amino]-7-(3,4-dichlorobenzoyl)-6-methyl-4-oxo-5,6,7,8-tetrahydropyrido[3,4-d]pyrimidin-3(4H)-yl]-N-methylbenzamide] |  |  | 0.25 µM | > 50 µM | 
CNC(=O)c1ccc(-n2c(N[C@H](C)C3CCC3)nc3c(c2=O)C[C@@H](C)N(C(=O)c2ccc(Cl)c(Cl)c2)C3)cc1 (single isomer, unassigned) [Compound C406a] | 0.18 µM | 31.3 µM |  |  | 
CNC(=O)c1ccc(-n2c(N3CC[C@H]3c3ccccc3)nc3c(c2=O)C[C@@H](C)N(C(=O)c2ccc(Cl)c(Cl)c2)C3)cc1 (single isomer, unassigned) [Compound C349, 4-[(6R)-7-(3,4-dichlorobenzoyl)-6-methyl-4-oxo-2-[(2*S)-2-phenylazetidin-1-yl]-5,6,7,8-tetrahydropyrido[3,4-d]pyrimidin-3(4H)-yl]-N-methylbenzamide] |  |  | 0.32 µM | 31.7 µM | 
